Laboratory results published in patent US20030125336A1, “Hydrohalide salts of an HIV protease inhibitor” (priority 2001, published 2003).

Tests used:
wild-type HIV protease = wild-type HIV protease (Human immunodeficiency virus type 1 group M subtype B, UniProt P04585); experiment: biochemical
[1] = biological target: HIV protease mutant enzyme Q-60 (Human immunodeficiency virus type 1, UniProt P04585); experiment: inhibition of microbial expressed HIV protease (WO 01/05230), mutant enzyme Q-60; assay type: biochemical
[2] = biological target: HIV protease mutant enzyme K-60 (Human immunodeficiency virus type 1, UniProt P04585); experiment: inhibition of microbial expressed HIV protease (WO 01/05230), mutant enzyme K-60; assay type: biochemical
[3] = biological target: HIV protease mutant enzyme V-18 (Human immunodeficiency virus type 1, UniProt P04585); experiment: inhibition of microbial expressed HIV protease (WO 01/05230), mutant enzyme V-18; assay type: biochemical
[4] = test system: wild-type viral construct; experiment: cell spread assay (WO 01/05230), wild-type viral construct; assay type: cell-based, HIV
Excerpt: (§1) Compound A and its hydrohalide salts are inhibitors of HIV protease, including mutant forms thereof that are resistant to known protease inhibitors.

viral construct Q60 = experiment: cell spread assay (WO 01/05230), viral construct Q60; assay type: cell-based, HIV
Excerpt: as §1

viral construct K-60 = experiment: cell spread assay (WO 01/05230), viral construct K-60; assay type: cell-based, HIV
Excerpt: as §1

viral construct V-18 = experiment: cell spread assay (WO 01/05230), viral construct V-18; assay type: cell-based, HIV
Excerpt: as §1

[5] = solubility in aqueous solutions; assay type: physicochemical; conditions: aqueous solutions including dilute HCl (gastric acid) solutions
[6] = oral absorption and pharmacokinetics in animal models; assay type: in vivo

For `COc1cncc(-c2cnc(C(C)(C)N3CCN(C[C@@H](O)C[C@@H](Cc4ccccc4)C(=O)N[C@H]4c5ccccc5OC[C@H]4O)[C@H](C(=O)NCC(F)(F)F)C3)o2)c1` [Compound A, (αR,γS,2S)-N-[(3S,4S)-3,4-dihydro-3-hydroxy-2H-1-benzopyran-4-yl]-y-hydroxy-4-[1-[5-(5-methoxy-3-pyridinyl)-2-oxazolyl]-1-methylethyl]-α-(phenylmethyl)-2-[[(2,2,2-trifluoroethyl)amino]carbonyl]-1-piperazinepentanamide], the IC50 (wild-type HIV protease) was less than 1 nM, the “potency compared with indinavir” value (wild-type HIV protease; HIV protease inhibition assay) was “significantly more potent” and the IC50 [1] was less than 5 nM. For the same compound, the IC50 [2] was less than 5 nM, the IC50 [3] was less than 5 nM and the “potency compared with indinavir” value ([4]; cell spread assay) was “significantly more potent”. For the same compound, the CIC95 ([4]; wild-type viral construct) was “below 50 nM”, the CIC95 (viral construct Q60) was “below 125 nM” and the CIC95 (viral construct K-60) was “below 125 nM”. For the same compound, the CIC95 (viral construct V-18) was “below 125 nM”, the solubility [5] was “relatively low solubility” and the oral absorption [6] was “poor oral absorption”.
